Test results as given in patent publication US20150359789A1, “METHODS FOR TREATING PRURITUS” (TREVI THERAPEUTICS, INC., priority 2014, published 2015).
Structures can show the parent of a compound that is named as a salt.

Test: Oral pharmacokinetics of nalbuphine HCl solution versus tablets, fed and fasted, across studies
Settings: human, plasma

Oc1ccc2c3c1O[C@H]1[C@@H](O)CC[C@@]4(O)[C@@H](C2)N(CC2CCC2)CC[C@]314 [nalbuphine, 17-(cyclobutylmethyl)-4,5α-epoxymorphinan-3,6α,14-triol, hydrochloride]
Tmax: 0.5 to 1 h
half-life: 6.87 to 6.99 h
